Patent US11160808B2, “Compounds that enhance Atoh1 expression” (Massachusetts Eye & Ear Infirmary, priority 2008, dated 2021)

Key:
[1] = test system: Math1 enhancer and minimal promoter Luciferase reporter in HEK cells; assay: Math1 Luciferase reporter assay in HEK cells; type: cell-based, human; details: Homo sapiens, HEK293
Method in brief: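 HEK cells stably carrying luciferase under the Math1 enhancer and minimal promoter were treated with compounds for 48 hours at 37° C, then lysed for luminescence, normalized to DMSO. Hits were defined as a 2-fold increase, with 1 μM retinoic acid as positive control. Follow-up used 0.1, 1 and 5 μM for 48 hours in 10% FBS DMEM, read by luciferase and real-time PCR.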

[2] = LD50 (median lethal dose) determination; type: cell-based
Excerpt: IC50 is a measure of the effectiveness of a compound in inhibiting biological or biochemical function. LD50 is the amount of a compound required to kill half the members of a tested population.

[3] = test system: Math1 mRNA; assay: Math1 mRNA expression by RT-PCR in HEK cells; type: cell-based, human; details: among the four randomly selected compounds
Procedure: Ten compounds, randomly selected from the group of 110 compounds identified in Example 2, were further evaluated, as follows. HEK cells were plated on 96 well plates at a density of 100000 cells per well. One day after plating, 0.1, 1, and 5 μM of each positive compound was added per well in a 10% fetal bovine serum (FBS) DMEM solution. Cells were then lysed 48 hours after addition of the compound and Math1 expression was analyzed using a luciferase reporter assay, as described above, and real-time PCR.
RNA was also isolated and Math1 transcripts were amplified using high-throughput RT-PCR.

[4] = test system: Inner ear stem cells; assay: Hair cell differentiation of inner ear stem cells (Math1-GFP and myosin 7a co-labeling); type: cell-based; details: cells co-labeled with Math1-GFP and myosin 7a; control 1.6%
Excerpt: Inner ear stem cells were exposed to compound CP.-0000540, which was selected at random from the group of 110 positive compounds described in Example 2.
Hair cell differentiation was increased to 5.1% of total cells compared to 1.6% for control.

## Clc1ccc2nc(-c3ccccc3)n(OCc3ccccc3Cl)c2c1 [CP-0000540, 6-chloro-1-(2-chlorobenzyloxy)-2-phenyl-1H-benzo[d]imidazole]
[1]; read-out: IC50
  IC50: 1.3 µM
[1]; read-out: Maximum (Fold DMSO)
  maximal fold induction: 2
[2]
  LD50: >30 µM
[3]
  increase in Math1 mRNA expression (ranking in words): highest increase
[4]
  Hair cell differentiation: 5.1 % of total cells
